Results: the NIST ThermoML archive (doi:10.1016/j.fluid.2016.04.009)

Tests used:
[1] = Molar enthalpy of transition or fusion; details: Crystal; DSC
[2] = for viscosity / mass density: 101.33 kPa; for viscosity / mass density / surface tension liquid-gas: Liquid; for viscosity: Concentric cylinders viscometry; for mass density: Vibrating tube method; for surface tension liquid-gas: Pendant drop shape; for Normal melting temperature: Crystal, DTA
[3] = refractive index (Na D-line) (dimensionless); details: 101.33 kPa, Liquid, Standard Abbe refractometry
[4] = molar heat capacity at constant pressure; details: 298.15 K; 101.33 kPa; Liquid; Drop calorimetry

CC(C)C[N+]1(C)CCCCC1.O=S(=O)([N-]S(=O)(=O)C(F)(F)F)C(F)(F)F
Details	Molar enthalpy of transition or fusion [kcal/mol]	Normal melting temperature [°C]
[1]	0.574	–
[2]	–	14.8

Details	mass density [kg/m3]	refractive index	surface tension liquid-gas [mN/m]	viscosity [mPa·s]
[2], 303.15 K	1392.9	–	–	125.12
[2], 308.15 K	1388.6	–	–	96.4
[2], 308.2 K	–	–	33.9	–
[2], 313.15 K	1384.4	–	–	76.03
[2], 318.15 K	1380.1	–	–	60.67
[2], 318.2 K	–	–	33.45	–
[2], 323.15 K	1375.9	–	–	49.34
[2], 328.15 K	1371.7	–	–	40.71
[2], 328.2 K	–	–	33.01	–
[2], 333.15 K	1367.5	–	–	34.11
[2], 338.15 K	1363.3	–	–	28.76
[2], 338.2 K	–	–	32.56	–
[2], 343.15 K	1359.1	–	–	24.57
[2], 343.2 K	–	–	32.34	–
[2], 348.15 K	1355	–	–	21.18
[2], 353.15 K	1350.8	–	–	18.47
[2], 358.15 K	1346.7	–	–	16.14
[2], 363.15 K	1342.7	–	–	14.25
[3], 288.15 K	–	1.43387	–	–
[3], 293.15 K	–	1.43243	–	–
[3], 298.15 K	–	1.43099	–	–
[3], 303.15 K	–	1.42955	–	–
[3], 308.15 K	–	1.42812	–	–
[3], 313.15 K	–	1.42668	–	–
[3], 318.15 K	–	1.42524	–	–
[3], 323.15 K	–	1.42381	–	–
[3], 328.15 K	–	1.42237	–	–
[3], 333.15 K	–	1.42093	–	–

CCCC[N+]1(C)CCCCC1.O=S(=O)([N-]S(=O)(=O)C(F)(F)F)C(F)(F)F
Details	mass density [kg/m3]	refractive index	surface tension liquid-gas [mN/m]	viscosity [mPa·s]
[2], 293.15 K	1386.9	–	–	261.28
[2], 298.15 K	1382.5	–	–	189.11
[2], 298.2 K	–	–	34.14	–
[2], 303.15 K	1378.1	–	–	141.44
[2], 308.15 K	1373.8	–	–	108.27
[2], 308.2 K	–	–	33.65	–
[2], 313.15 K	1369.5	–	–	84.87
[2], 318.15 K	1365.2	–	–	67.24
[2], 318.2 K	–	–	33.17	–
[2], 323.15 K	1361	–	–	54.34
[2], 328.15 K	1356.7	–	–	44.55
[2], 328.2 K	–	–	32.68	–
[2], 333.15 K	1352.5	–	–	37.09
[2], 338.15 K	1348.3	–	–	31.09
[2], 338.2 K	–	–	32.2	–
[2], 343.15 K	1344.1	–	–	26.41
[2], 343.2 K	–	–	31.96	–
[2], 348.15 K	1340	–	–	22.65
[2], 353.15 K	1335.9	–	–	19.65
[2], 358.15 K	1331.8	–	–	17.09
[2], 363.15 K	1327.7	–	–	15.01
[3], 288.15 K	–	1.43251	–	–
[3], 293.15 K	–	1.43105	–	–
[3], 298.15 K	–	1.42959	–	–
[3], 303.15 K	–	1.42813	–	–
[3], 308.15 K	–	1.42667	–	–
[3], 313.15 K	–	1.42521	–	–
[3], 318.15 K	–	1.42375	–	–

Details	molar heat capacity at constant pressure [J/K/mol]
[4]	607.52

Cc1ccc[n+](CC(C)C)c1.O=S(=O)([N-]S(=O)(=O)C(F)(F)F)C(F)(F)F
Details	mass density [kg/m3]	refractive index	surface tension liquid-gas [mN/m]	viscosity [mPa·s]
[2], 293.15 K	1417.2	–	–	135.42
[2], 298.15 K	1412.6	–	–	100.1
[2], 298.2 K	–	–	33.45	–
[2], 303.15 K	1408	–	–	76.34
[2], 308.15 K	1403.4	–	–	59.56
[2], 308.2 K	–	–	32.99	–
[2], 313.15 K	1398.8	–	–	47.48
[2], 318.15 K	1394.2	–	–	38.42
[2], 318.2 K	–	–	32.54	–
[2], 323.15 K	1389.7	–	–	31.63
[2], 328.15 K	1385.1	–	–	26.4
[2], 328.2 K	–	–	32.08	–
[2], 333.15 K	1380.6	–	–	22.36
[2], 338.15 K	1376.1	–	–	19.08
[2], 338.2 K	–	–	31.63	–
[2], 343.15 K	1371.6	–	–	16.47
[2], 343.2 K	–	–	31.4	–
[2], 348.15 K	1367.2	–	–	14.35
[2], 353.15 K	1362.8	–	–	12.63
[2], 358.15 K	1358.4	–	–	11.14
[2], 363.15 K	1354.1	–	–	9.93
[3], 288.15 K	–	1.44902	–	–
[3], 293.15 K	–	1.44743	–	–
[3], 298.15 K	–	1.44585	–	–
[3], 303.15 K	–	1.44426	–	–
[3], 308.15 K	–	1.44268	–	–
[3], 313.15 K	–	1.44109	–	–
[3], 318.15 K	–	1.43951	–	–

Details	molar heat capacity at constant pressure [J/K/mol]
[4]	578.87

CCCCCC[n+]1ccn(C)c1.O=S(=O)([N-]S(=O)(=O)C(F)(F)F)C(F)(F)F
Details	Normal melting temperature [°C]
[2]	-10.5

CC(C)Cn1cc[n+](C)c1.O=S(=O)([N-]S(=O)(=O)C(F)(F)F)C(F)(F)F
Details	mass density [kg/m3]	refractive index	surface tension liquid-gas [mN/m]	viscosity [mPa·s]
[2], 293.15 K	1442.1	–	–	107.35
[2], 298.15 K	1437.2	–	–	81.44
[2], 298.2 K	–	–	32.72	–
[2], 303.15 K	1432.4	–	–	63.36
[2], 308.15 K	1427.7	–	–	50.3
[2], 308.2 K	–	–	32.26	–
[2], 313.15 K	1422.9	–	–	40.69
[2], 318.15 K	1418.2	–	–	33.4
[2], 318.2 K	–	–	31.81	–
[2], 323.15 K	1413.5	–	–	27.81
[2], 328.15 K	1408.8	–	–	23.46
[2], 328.2 K	–	–	31.35	–
[2], 333.15 K	1404.2	–	–	20.05
[2], 338.15 K	1399.5	–	–	17.24
[2], 338.2 K	–	–	30.9	–
[2], 343.15 K	1394.9	–	–	14.99
[2], 343.2 K	–	–	30.67	–
[2], 348.15 K	1390.3	–	–	13.14
[2], 353.15 K	1385.7	–	–	11.63
[2], 358.15 K	1381.1	–	–	10.31
[2], 363.15 K	1376.6	–	–	9.22
[3], 288.15 K	–	1.4301	–	–
[3], 293.15 K	–	1.42854	–	–
[3], 298.15 K	–	1.42699	–	–
[3], 303.15 K	–	1.42543	–	–
[3], 308.15 K	–	1.42387	–	–
[3], 313.15 K	–	1.42232	–	–
[3], 318.15 K	–	1.42076	–	–

Details	molar heat capacity at constant pressure [J/K/mol]
[4]	565.31

CCCC[n+]1cccc(C)c1.O=S(=O)([N-]S(=O)(=O)C(F)(F)F)C(F)(F)F
Details	mass density, [2] [kg/m3]	refractive index, [3]	viscosity, [2] [mPa·s]
288.15 K	–	1.44894	–
293.15 K	1418.7	1.44737	84.2
298.15 K	1414.1	1.4458	65.74
303.15 K	1409.4	1.44423	52.39
308.15 K	1404.8	1.44266	42.46
313.15 K	1400.2	1.44109	34.93
318.15 K	1395.6	1.43952	29.13
323.15 K	1391.1	–	24.59
328.15 K	1386.6	–	20.97
333.15 K	1382	–	18.1
338.15 K	1377.6	–	15.71
343.15 K	1373.1	–	13.77
348.15 K	1368.7	–	12.15
353.15 K	1364.3	–	10.82
358.15 K	1359.9	–	9.66
363.15 K	1355.6	–	8.69

Details	molar heat capacity at constant pressure [J/K/mol]
[4]	578.01

CC(C)C[N+]1(C)CCCC1.O=S(=O)([N-]S(=O)(=O)C(F)(F)F)C(F)(F)F
Details	Molar enthalpy of transition or fusion [kcal/mol]	Normal melting temperature [°C]	molar heat capacity at constant pressure [J/K/mol]
[1]	3.13	–	–
[2]	–	-0.2	–
[4]	–	–	582.08

Details	mass density [kg/m3]	refractive index	surface tension liquid-gas [mN/m]	viscosity [mPa·s]
[2], 293.15 K	1404.5	–	–	83.61
[2], 298.15 K	1400	–	–	66.29
[2], 298.2 K	–	–	33.54	–
[2], 303.15 K	1395.6	–	–	53.53
[2], 308.15 K	1391.2	–	–	43.91
[2], 308.2 K	–	–	33.1	–
[2], 313.15 K	1386.8	–	–	36.52
[2], 318.15 K	1382.4	–	–	30.75
[2], 318.2 K	–	–	32.65	–
[2], 323.15 K	1378	–	–	26.18
[2], 328.15 K	1373.7	–	–	22.52
[2], 328.2 K	–	–	32.2	–
[2], 333.15 K	1369.4	–	–	19.57
[2], 338.15 K	1365.2	–	–	17.09
[2], 338.2 K	–	–	31.75	–
[2], 343.15 K	1360.9	–	–	15.06
[2], 343.2 K	–	–	31.53	–
[2], 348.15 K	1356.7	–	–	13.36
[2], 353.15 K	1352.5	–	–	11.95
[2], 358.15 K	1348.3	–	–	10.7
[2], 363.15 K	1344.1	–	–	9.65
[3], 288.15 K	–	1.42708	–	–
[3], 293.15 K	–	1.42563	–	–
[3], 298.15 K	–	1.42418	–	–
[3], 303.15 K	–	1.42273	–	–
[3], 308.15 K	–	1.42127	–	–
[3], 313.15 K	–	1.41982	–	–
[3], 318.15 K	–	1.41837	–	–

CCCC[N+]1(C)CCCC1.O=S(=O)([N-]S(=O)(=O)C(F)(F)F)C(F)(F)F
Details	Molar enthalpy of transition or fusion [kcal/mol]	Normal melting temperature [°C]	molar heat capacity at constant pressure [J/K/mol]
[1]	4.83	–	–
[2]	–	-13.4	–
[4]	–	–	584.19

Details	mass density, [2] [kg/m3]	refractive index, [3]	viscosity, [2] [mPa·s]
288.15 K	–	1.42612	–
293.15 K	1406.1	1.42466	101.71
298.15 K	1401.6	1.42319	79.57
303.15 K	1397.2	1.42173	63.64
308.15 K	1392.7	1.42027	51.71
313.15 K	1388.3	1.4188	42.67
318.15 K	1383.8	1.41734	35.6
323.15 K	1379.4	–	30.07
328.15 K	1375.1	–	25.66
333.15 K	1370.7	–	22.16
338.15 K	1366.4	–	19.21
343.15 K	1362.1	–	16.83
348.15 K	1357.8	–	14.84
353.15 K	1353.6	–	13.21
358.15 K	1349.3	–	11.77
363.15 K	1345.1	–	10.57

CCCC[n+]1ccn(C)c1.O=S(=O)([N-]S(=O)(=O)C(F)(F)F)C(F)(F)F
Details	molar heat capacity at constant pressure [J/K/mol]
[4]	565.73

[3]
Details	refractive index
288.15 K	1.43015
293.15 K	1.4286
298.15 K	1.42705
303.15 K	1.4255
308.15 K	1.42396
313.15 K	1.42241
318.15 K	1.42086
